Laboratory results: patent publication US20040214832A1, “Piperazine derivative renin inhibitors” (priority 2003, published 2004)

biological target: T1, human renin (Homo sapiens, UniProt P00797); experiment: Determination of renin IC50 by tGFP FRET assay; assay type: biochemical; settings: Human recombinant renin, tandem GFP substrate 650 nM, 60 min incubation with compound, pH 7.4, 11-point curve
T1 sequence (P00797 67-406): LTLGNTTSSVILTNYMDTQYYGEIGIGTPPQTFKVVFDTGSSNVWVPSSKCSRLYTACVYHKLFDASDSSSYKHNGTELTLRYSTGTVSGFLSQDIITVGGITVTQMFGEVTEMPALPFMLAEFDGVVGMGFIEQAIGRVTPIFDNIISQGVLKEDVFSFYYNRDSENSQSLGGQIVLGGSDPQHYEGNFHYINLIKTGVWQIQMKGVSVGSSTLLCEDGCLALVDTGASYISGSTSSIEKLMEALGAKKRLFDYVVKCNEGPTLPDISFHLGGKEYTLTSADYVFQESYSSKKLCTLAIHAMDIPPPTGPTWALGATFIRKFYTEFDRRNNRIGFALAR
Description: Determination of Renin IC50 by tGFP FRET Assay
The tGFP FRET (fluorescence resonance energy transfer) assay utilizes a tandem GFP substrate (60 kDa, Discovery Technologies) containing nine amino acid recognition sequences for human renin flanked by two GFP proteins. The assay is used to determine the ability of a compound to act as an inhibitor of renin enzymatic activity by determination of that concentration of test compound that inhibits by 50% (IC50) the ability of renin to cleave the tandem GFP substrate. The IC50 values are determined over an 11-point curve at concentrations of 100 μM to 1 pM. Each compound concentration used to construct the curve was dependent on renin inhibitor potency. For example, subnanomolar IC50 values were determined over an 11-point curve at concentrations of 10 μM to 1 pM. All other IC50 values were determined over an 11-point curve at concentrations of 100 μM to 0.0065 μM. The concentrations were achieved by diluting a 9.1 nM stock of Human recombinant renin in the appropriate amount of buffer containing 50 mM HEPES, 1 mM EDTA, 1% PEG (8000 MW), 1 mM DTT, 0.1% BSA, pH 7.4 to achieve the final concentration of 50.4 μIU. The tGFP substrate stock solution of 43 μM was diluted with the appropriate amount of the above buffer to obtain the final concentration of 650 nM. In addition, 1 μl of the compound is diluted in dimethylsulfoxide (DMSO) to represent an […] log scale (5% final). The SR renin and compound are added to a 384 capacity plate by an automated robot (BIOMEK). The plate is incubated for 60 minutes; upon completion the tGFP substrate is added.
The IC50 is determined by monitoring the increase in […] at 432/432 nm excitation, 530/475 nm emission with a cutoff at 515/455 nm, in a fluorometric plate reader.

| IC50 [nM] | SMILES |
| --- | --- |
| > 1000 | COc1ccccc1COCCCOc1ccc(N2C(=O)CNC[C@@H]2COCc2ccccn2)cc1 [Example 29, (6R)-1-{4-[3-(2-methoxybenzyloxy)-propoxy]-phenyl}-6-(pyridin-2-ylmethoxymethyl)-piperazin-2-one] |
| > 1000 | COc1ccccc1COCCCOc1ccc(N2C(=O)CNC[C@@H]2COCc2ccc(Br)cc2)cc1 [Example 30, (6R)-6-(4-bromobenzyloxymethyl)-1-{4-[3-(2-methoxybenzyloxy)-propoxy]-phenyl}-piperazin-2-one] |
| 0.42 | COc1ccccc1COCCCOc1ccc(N2C(=O)CNC[C@@H]2COc2ccc3c(c2)N(CCOC(C)=O)CCC3)cc1 [Example 31, acetic acid 2-[7-(1-{4-[3-(2-methoxybenzyloxy)-propoxy]-phenyl}-6-oxopiperazin-(2R)-ylmethoxy)-3,4-dihydro-2H-quinolin-1-yl]-ethyl ester] |
| 153 | COc1ccccc1COCCCOc1ccc(N2CCNC[C@@H]2COc2ccc3ccccc3c2)cc1 [Example 32, (2R)-1-{4-[3-(2-methoxybenzyloxy)-propoxy]-phenyl}-2-(naphthalen-2-yloxymethyl)-piperazine] |
| 3990 | COc1ccc(COC[C@H]2CNCCN2c2ccc(OCCCOCc3ccccc3OC)cc2)cc1 [Example 33, (2R)-2-(4-methoxybenzyloxymethyl)-1-{4-[3-(2-methoxy-benzyloxy)-propoxy]-phenyl}-piperazine] |
| 10900 | COc1ccc(COC[C@H]2CNCCN2c2ccc(OCCCOCc3ccccc3)cc2)cc1 [Example 34, (2R)-1-[4-(3-benzyloxypropoxy)-phenyl]-2-(4-methoxybenzyloxymethyl)-piperazine] |
| > 1000 | c1ccc(COc2ccc(N3CCNC[C@@H]3COc3ccc4ccccc4c3)cc2)cc1 [Example 35, (2R)-1-(4-benzyloxyphenyl)-2-(naphthalen-2-yloxymethyl)-piperazine] |
| > 1000 | COc1ccc(COC[C@H]2CNCCN2c2ccc(OCc3ccccc3)cc2)cc1 [Example 36, (2R)-1-(4-benzyloxyphenyl)-2-(4-methoxybenzyloxymethyl)-piperazine] |
| 54 | COc1ccccc1COCCCOc1ccc(N2C(=O)CNC[C@@H]2COc2ccc3ccccc3c2)cc1 [Example 37, (6R)-1-{4-[3-(2-methoxybenzyloxy)-propoxy]-phenyl}-6-(naphthalen-2-yloxymethyl)-piperazin-2-one] |
| 1420 | c1ccc(COCCCOc2ccc(N3CCNC[C@@H]3COc3ccc4ccccc4c3)cc2)cc1 [Example 38, (2R)-1-[4-(3-benzyloxypropoxy)-phenyl]-2-(naphthalen-2-yloxymethyl)-piperazine] |
| 152 | COc1ccccc1COCCCOc1ccc(N2C(=O)CNC[C@@H]2COc2ccc3ccccc3c2)cc1F [Example 39, (6R)-1-{3-fluoro-4-[3-(2-methoxybenzyloxy)-propoxy]-phenyl}-6-(naphthalen-2-yloxymethyl)-piperazin-2-one] |
| 440 | COc1ccccc1COCCCOc1ccc(N2CCNC[C@@H]2COc2ccc3c(c2)CCCC3)cc1 [Example 40, (2R)-1-{4-[3-(2-methoxybenzyloxy)-propoxy]-phenyl}-2-(5,6,7,8-tetrahydronaphthalen-2-yloxymethyl)-piperazine] |
| 822 | COc1ccccc1COCCCOc1ccc(N2C(=O)CNC[C@@H]2COc2ccc3cccnc3c2)cc1 [Example 41, (6R)-1-{4-[3-(2-methoxybenzyloxy)-propoxy]-phenyl}-6-(quinolin-7-yloxymethyl)-piperazin-2-one] |
| 124 | COc1ccccc1COCCCOc1ccc(N2C(=O)CNC[C@@H]2COc2ccc3c(c2)NCCC3)cc1 [Example 42, (6R)-1-{4-[3-(2-methoxybenzyloxy)-propoxy]-phenyl}-6-(1,2,3,4-tetrahydroquinolin-7-yloxymethyl)-piperazin-2-one] |
| 883 | COc1ccccc1COCCCOc1c(F)cc(N2C(=O)CNC[C@@H]2COc2ccc3ccccc3c2)cc1F [Example 43, (6R)-1-{3,5-difluoro-4-[3-(2-methoxybenzyloxy)-propoxy]-phenyl}-6-(naphthalen-2-yloxymethyl)-piperazin-2-one] |
| 37 | COc1ccccc1COCCCOc1ccc(N2C(=O)CNC[C@@H]2COc2ccc3c(c2)N(CCCO)CCC3)cc1 [Example 44, (6R)-6-[1-(3-hydroxypropyl)-1,2,3,4-tetrahydroquinolin-7-yloxymethyl]-1-{4-[3-(2-methoxybenzyloxy)-propoxy]-phenyl}-piperazin-2-one] |
| 7010 | COc1ccccc1COCCCOc1ccc(N2C(=O)CNC[C@@H]2COCc2ccccc2)cc1 [Example 45, (6R)-6-benzyloxymethyl-1-{4-[3-(2-methoxybenzyloxy)-propoxy]-phenyl}-piperazin-2-one] |
| 5590 | COc1ccccc1COCCCOc1ccc(N2C(=O)CNC[C@H]2COCc2ccc(F)cc2)cc1 [Example 46, (6S)-6-(4-fluorobenzyloxymethyl)-1-{4-[3-(2-methoxybenzyloxy)-propoxy]-phenyl}-piperazin-2-one] |
| > 1000 | O=C(NCCc1ccccc1)c1ccc(N2C(=O)CNC[C@@H]2COc2ccc3ccccc3c2)cc1 [Example 47, 4-[(2R)-2-(naphthalen-2-yloxymethyl)-6-oxopiperazin-1-yl]-N-phenethylbenzamide] |
| 3840 | COCCCOc1cc(N2C(=O)CNC[C@@H]2COc2ccc3ccccc3c2)ccc1OC [Example 48, (6R)-1-[4-methoxy-3-(3-methoxypropoxy)-phenyl]-6-(naphthalen-2-yloxymethyl)-piperazin-2-one] |
| > 1000 | CCOCCNC(=O)c1ccc(N2C(=O)CNC[C@@H]2COc2ccc3ccccc3c2)cc1 [Example 49, N-(2-ethoxyethyl)-4-[(2R)-2-(naphthalen-2-yloxymethyl)-6-oxopiperazin-1-yl]-benzamide] |
| > 1000 | COc1cccc(CCNC(=O)c2ccc(N3C(=O)CNC[C@@H]3COc3ccc4ccccc4c3)cc2)c1 [Example 50, N-[2-(3-methoxyphenyl)-ethyl]-4-[(2R)-2-(naphthalen-2-yloxymethyl)-6-oxopiperazin-1-yl]-benzamide] |
| 528 | COc1ccccc1COCCCOc1ccc(N2C(=O)CNC[C@@H]2COc2ccc3ccncc3c2)cc1 [Example 51, (6R)-6-(isoquinolin-7-yloxymethyl)-1-{4-[3-(2-methoxybenzyloxy)-propoxy]-phenyl}-piperazin-2-one] |
| 3450 | COc1ccccc1COCCCOc1ccc(N2C(=O)CNC[C@@H]2COc2ccc3ncccc3c2)cc1 [Example 52, (6R)-1-{4-[3-(2-methoxybenzyloxy)-propoxy]-phenyl}-6-(quinolin-6-yloxymethyl)-piperazin-2-one] |
| > 1000 | O=C(NCCOc1ccccc1)c1ccc(N2C(=O)CNC[C@@H]2COc2ccc3ccccc3c2)cc1 [Example 53, 4-[(2R)-2-(naphthalen-2-yloxymethyl)-6-oxopiperazin-1-yl]-N-(2-phenoxyethyl)-benzamide] |
| > 1000 | COc1ccccc1COCCCOc1ccc(N2C(=O)CNC[C@@H]2COc2ccc3c(c2)CCCN3C(C)=O)cc1 [Example 54, (6R)-6-(1-acetyl-1,2,3,4-tetrahydroquinolin-6-yloxymethyl)-1-{4-[3-(2-methoxybenzyloxy)-propoxy]-phenyl}-piperazin-2-one] |
| 379 | COc1ccccc1COCCCOc1ccc(N2C(=O)CNC[C@@H]2COc2ccc3c(c2)N(Cc2cscn2)CCC3)cc1 [Example 55, (6R)-1-{4-[3-(2-methoxybenzyloxy)-propoxy]-phenyl}-6-(1-thiazol-4-ylmethyl-1,2,3,4-tetrahydroquinolin-7-yloxymethyl)-piperazin-2-one] |
| 435 | COc1ccccc1COCCCOc1ccc(N2C(=O)CNC[C@@H]2COc2ccc3c(c2)N(CC(N)=O)CCC3)cc1 [Example 56, 2-[7-(1-{4-[3-(2-methoxybenzyloxy)-propoxy]-phenyl}-6-oxopiperazin-(2R)-ylmethoxy)-3,4-dihydro-2H-quinolin-1-yl]-acetamide] |
| 64 | COc1ccccc1COCCCOc1ccc(N2C(=O)CNC[C@@H]2COc2ccc3c(c2)N(CCO)CCC3)cc1 [Example 57, (6R)-6-[1-(2-hydroxyethyl)-1,2,3,4-tetrahydroquinolin-7-yloxymethyl]-1-{4-[3-(2-methoxybenzyloxy)-propoxy]-phenyl}-piperazin-2-one] |
